Values of other authors in patent US8242172B2, “2,2-dimethylbutyric acid oral pharmaceutical compositions” (Trustees of Boston University, priority 1998, dated 2012).
One block for each molecule: values may come before it.

Tests used:
ΔF508-CFTR [1] = conditions: IB3-1 cells, 0.1-1 mM; primary nasal epithelia, 5 mM
CF patients = conditions: human, in vivo
ΔF508-CFTR [2] = target: T1, ΔF508-CFTR (Homo sapiens, UniProt P13569, DEL508-508); set-up: primary cultures of nasal polyp epithelia from CF patients (ΔF508 homozygous or heterozygous); endogenous in cells; host or cells: primary nasal polyp epithelia from CF patients; IB3-1 CF bronchial epithelial cell line; conditions: IB3-1 cells, 2.5 mM
ΔF508-CFTR [3] = target: T1, ΔF508-CFTR; set-up: primary cultures of nasal polyp epithelia from CF patients (ΔF508 homozygous or heterozygous); endogenous in cells; host or cells: primary nasal polyp epithelia from CF patients; IB3-1 CF bronchial epithelial cell line; conditions: 0.1 and 2 mM, up to 7 days in culture; primary nasal polyp epithelia from CF patients or IB3-1
ΔF508-CFTR [4] = conditions: 5 mM, 24 hours, C-127 cells
ΔF508-CFTR [5] = target: T1, ΔF508-CFTR; conditions: up to 300 mM
IB3-1 cells = conditions: equimolar concentrations (1-2 mM)
ΔF508-CFTR [6] = target: T1, ΔF508-CFTR; conditions: 1 M or 10%

T1 sequence (P13569 with tags, fused parts or gaps DEL508-508): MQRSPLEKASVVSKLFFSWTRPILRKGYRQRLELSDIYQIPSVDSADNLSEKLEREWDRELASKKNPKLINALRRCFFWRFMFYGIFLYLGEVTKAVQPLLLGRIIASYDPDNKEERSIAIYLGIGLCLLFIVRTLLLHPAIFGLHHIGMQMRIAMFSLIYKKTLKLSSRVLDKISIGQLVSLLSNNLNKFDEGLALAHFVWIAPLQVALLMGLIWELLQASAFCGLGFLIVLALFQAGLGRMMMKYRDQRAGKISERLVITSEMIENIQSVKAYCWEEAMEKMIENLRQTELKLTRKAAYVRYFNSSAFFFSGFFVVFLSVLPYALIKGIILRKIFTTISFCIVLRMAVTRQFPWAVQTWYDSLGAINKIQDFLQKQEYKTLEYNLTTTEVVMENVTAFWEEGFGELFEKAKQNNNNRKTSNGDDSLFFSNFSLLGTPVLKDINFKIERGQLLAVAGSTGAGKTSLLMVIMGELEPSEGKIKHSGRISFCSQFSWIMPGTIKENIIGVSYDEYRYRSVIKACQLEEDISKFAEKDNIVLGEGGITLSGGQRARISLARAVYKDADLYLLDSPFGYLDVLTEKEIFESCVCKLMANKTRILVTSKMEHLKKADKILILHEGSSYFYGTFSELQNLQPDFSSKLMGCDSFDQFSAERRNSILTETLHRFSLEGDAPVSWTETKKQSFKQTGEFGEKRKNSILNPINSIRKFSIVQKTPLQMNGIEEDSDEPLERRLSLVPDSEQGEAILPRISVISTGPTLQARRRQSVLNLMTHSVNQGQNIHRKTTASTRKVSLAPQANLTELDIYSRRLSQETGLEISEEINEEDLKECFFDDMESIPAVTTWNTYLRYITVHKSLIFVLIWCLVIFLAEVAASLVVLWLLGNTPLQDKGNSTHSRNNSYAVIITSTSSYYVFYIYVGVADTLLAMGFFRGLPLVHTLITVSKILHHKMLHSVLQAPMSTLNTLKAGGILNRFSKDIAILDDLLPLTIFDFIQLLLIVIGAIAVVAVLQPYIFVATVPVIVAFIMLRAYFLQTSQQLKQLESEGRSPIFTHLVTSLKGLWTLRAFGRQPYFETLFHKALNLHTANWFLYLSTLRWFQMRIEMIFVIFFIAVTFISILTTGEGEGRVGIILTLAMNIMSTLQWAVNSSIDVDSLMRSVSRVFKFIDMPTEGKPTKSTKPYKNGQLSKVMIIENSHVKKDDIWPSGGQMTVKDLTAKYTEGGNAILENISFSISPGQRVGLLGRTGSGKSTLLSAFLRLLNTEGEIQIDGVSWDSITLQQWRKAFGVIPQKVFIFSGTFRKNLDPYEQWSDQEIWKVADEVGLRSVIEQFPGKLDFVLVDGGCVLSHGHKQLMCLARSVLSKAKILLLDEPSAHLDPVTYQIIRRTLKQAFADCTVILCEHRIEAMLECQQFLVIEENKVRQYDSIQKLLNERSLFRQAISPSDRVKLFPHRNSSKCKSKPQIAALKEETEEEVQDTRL

Molecule: O=C(O)CCCc1ccccc1 [4PBA, 4-phenylbutyrate]
- higher molecular mass forms of CFTR (immunoblot) (ΔF508-CFTR [1]): appearance of higher molecular mass forms of CFTR
- clinical tolerability (CF patients): not well tolerated
- protein kinase A-activated, linear, 10 pS chloride channels at plasma membrane (ΔF508-CFTR [2]): chloride channels appeared at the plasma membrane
- forskolin-activated chloride secretion (ΔF508-CFTR [3]): restoration of forskolin-activated chloride secretion

- ~180-kD mature glycosylated species of CFTR (ΔF508-CFTR [4]): not observed
Molecule: CCCC(=O)O [butyrate, butyric acid]
- ΔF508-CFTR mRNA by Northern analysis (ΔF508-CFTR [4]): massive increase in ΔF508-CFTR mRNA
- cAMP-stimulation indicative of chloride ion transport (ΔF508-CFTR [5]): no increases in cAMP-stimulation was observed
- cell morphology and growth rate (IB3-1 cells): morphologic changes in IB3-1 cells, with rounding of cells and decreased growth rate

Molecule: OCC(O)CO [glycerol]
- movement of ΔF508-CFTR from the ER to the plasma membrane (ΔF508-CFTR [6]): appears to facilitate movement of ΔF508-CFTR from the ER to the plasma membrane

Molecule: arginine butyrate
- effectiveness at continuous administration (thalassemic patients; continuous administration at about 2000 mg/kg patient weight): effective
- benefit measured by rise in fetal hemoglobin levels (thalassemic patients; pulses, about 400 to 1500 mg/kg, thalassemic patients): surprisingly more beneficial
